Data from patent US5317086A, “Cysteine proteinase inhibitors and inhibitor precursors” (The Regents of the University of California, priority 1992, dated 1994).
Non-standard residues stand in square brackets, D forms with d. Residues, ends and D or L forms follow the SMILES beside them. ξ: configuration not given here. *: point of attachment. MeOSuc = COC(=O)CCC(=O)*; ξF = NC(Cc1ccccc1)C(=O)O

Target: T1, papain (Carica papaya, UniProt P00784)
T1 construct: purchased Sigma
T1 sequence (P00784 134-345): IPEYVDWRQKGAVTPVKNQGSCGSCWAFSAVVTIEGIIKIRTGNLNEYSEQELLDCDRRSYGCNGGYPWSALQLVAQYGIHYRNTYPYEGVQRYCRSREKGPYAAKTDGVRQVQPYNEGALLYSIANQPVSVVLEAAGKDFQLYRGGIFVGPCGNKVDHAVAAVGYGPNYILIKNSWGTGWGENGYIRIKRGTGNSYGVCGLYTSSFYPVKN
Test: Irreversible inhibition of papain (preincubation and 3000-fold dilution assay)
Assay type: biochemical
Conditions: control; 0.020 μM (666Ki) incubated with papain, diluted to (0.2 Ki); over 2.5 hr
Protocol: Papain (Sigma, 2x recrystallized) (1 mg/mL) was activated at 25° C. for 30 min prior to use in a solution of 0.1mM EDTA, 0.5 mM L-cysteine hydrochloride, and 0.06 mM mercaptoethanol, and was then diluted (20 μL to 1.0 mL) and stored at 4° C. for use in the assays. The cysteine and mercaptoethanol buffers were prepared fresh daily. The standard assay conditions consisted of 50 mM phosphate, 0.2 M NaCl, 5 mM EDTA, 2 mM dithiothreitol (DTT), 0.2% bovine serum albumin (BSA) and 20% CH3 CN, pH 6.5. However, these concentrations were obtained by dilution of a buffer of 100 mM phosphate, 0.4 M NaCl, 10 mM EDTA, 4 mM DTT at pH 6.5 to a final volume of 1 mL with the necessary amounts of CH3 CN and H2 O. The DTT and BSA were added fresh daily to the phosphate buffer. Kinetic measurements were performed by monitoring the fluorescence of 7-amino-4-methylcoumarin (MCA) [1 (excitation) 350 nm, 1 (emission) 460 nm] released upon hydrolysis of the substrate, CbzPheArgMCA. […] The Km was determined in duplicate runs by fitting rate vs. [S] using the program ENZFITTER. […]
The incomplete deactivation can be attributed to the increasing amounts of aldehyde present over time, which as a reversible inhibitor protects papain against alkylation. The dilution assay also provided evidence that the inhibition measured in the reversible assay was not due to trace amounts of aldehyde contamination. […]

COC(=O)CCC(=O)NC(Cc1ccccc1)C(=O)NCC=O (stereo not shown) [MeOSucPheGlyCHO] (MeOSuc-[ξF]-Gly-aldehyde)
loss of papain activity: 8%
